Key:
[1] = Acute toxicity test in mice; conditions: mouse, in vivo, oral, parentheses: 95% confidence limit
Procedure: The test drugs were suspended in 5% gum arabic aqueous solution to make 50 mg/ml, and given orally male mice of ddY strain weighing 18-22 g and male rats of Wistar strain weighing 95-120 g. The LD50 values were calculated from the mortality of the animals that ensued during the 72 hours following the drug administration

bile secretion [2] = assay: Bile secretion test in rats; assay type: in vivo, male Wistar rats; conditions: oral; for Bile volume secreted after administration: rat, volume in 1 h before administration = 100%; for Volume of bile secreted relative to one hour before administration: rats
Procedure: Male Wistar rats weighing 200-210 g were fasted overnight and laparotomized under urethane anesthesia(Subcutaneous injection at a dose of 1.5 g/kg). A polyethylene tube was inserted into the common bile duct. The bile was collected for one hour from 30 minutes after the operation. Subsequently, the animals were given orally the test drugs, each 50 mg of which was suspended in 1 ml of 5% gum arabic aqueous solution. The bile was collected for 5 hours after the drug administration. The volume of the bile secreted at hourly intervals after the drug administration was expressed in %, defining the volume secreted for one hour before the drug administration as 100%, as shown in Table 1.
About 500 mg of p-menth-1-ene-8,9-diol were weighed accurately, and suspended in 10 ml of 5% gum arabic aqueous solution. […] Male rats of Wistar strain weighing 200 g were fasted overnight, anesthetized by subcutanous injection of 0.3 g of urethane and laparotomized. A polyethylene tube was inserted into the common bile duct. The bile was collected for one hour from 30 minutes after the operation. […]
About 500 mg of 9-acetoxy-p-menth-1-en-8-ol was weighed accurately and suspended in 10ml of 5% gum arabic aqueous solution. […] Male rats of Wistar strain weighing about 210 g were fasted overnight and anesthetized by subcutaneous injection of 0.32 g of urethane and then laparotomized. A polyethylene tube was inserted into the common bile duct, and the bile secreted through the duct was collected for one hour from 30 minutes after the operation. Subsequently, the choleretic of the present invention was administered orally in a volume of 1.05 ml (250 mg/kg).

[3] = tested on: sleeping time induced by hexobarbital; assay: Effects on the sleeping time induced by hexobarbital (metabolism function of the liver); assay type: in vivo, male rats of Wistar strain; conditions: rats, 250 mg/kg oral once daily for a week; hexobarbital sodium 100 mg/kg i.p.; control 17.1 ± 0.9
Procedure: About 500 mg of the test drugs were weighed accurately and suspended in 2 ml of 5% gum arabic aqueous solution. Ten male rats of Wistar strain were used per group and given orally the test drugs prepared above in a volume of 0.1 ml/100 g body weight (equivalent to 250 mg/kg), once daily (at 8.30-9.00 a.m.), for a week. The animals were fasted overnight after the last administration of the test drugs. Subsequently, 10% hexobarbital sodium aqueous solution was injected intraperitoneally in a volume of 0.1 ml (equivalent to 100 mg/kg) and the sleeping time was measured. The animals were regarded as sleeping when the loss of righting reflex persist for more than 30 seconds.

bile secretion [4] = assay: Bile secretion test in dogs; assay type: in vivo, male mongrel dogs; conditions: into duodenum; for Bile volume secreted after administration: dog, volume in 1 h before administration = 100%; for Volume of bile secreted relative to one hour before administration: one dog (7.6 kg)
Procedure: Male mongrel dogs weighing approximately 8 kg were anesthetized with intravenous injection of […] of pentobarbital and further with subcutaneous injection of urethane at a dose of 1.0 g/kg and laparotomized. One canula was inserted into the common bile duct and directed to the liver for collection of the bile, and the other canula was inserted into the duodenum for the drug administration. The cholecystic duct was ligated and the gallbladder bile was aspirated with an injection syringe. The operation was finished by suture of the peritoneum. The bile was collected for one hour from 30 minutes after the operation. The animals were given the test drugs, each 50 mg of which was suspended in 1 ml of 5% gum arabic aqueous solution, through the canula for the drug administration. The bile was collected at hourly intervals for 6 hours after the drug administration. Defining the volume of the bile secreted for one hour before the drug administration as 100%, the volume secreted at hourly intervals after the drug administration was expressed in %, as shown in Table 2.
The mean volume secreted for one hour before the drug administration was 1798 μl.
This suspension was used as a choleretic of the present invention. A male mongrel dog weighing 8.8 kg was fasted overnight and anesthetized by subcutaneous injection of 1.0 mg/kg of urethane and laparotomized. One canula was inserted into the common bile duct and directed to the liver for collection of the bile, and the other canula was also inserted into the duodenum for the drug administration. Subsequently, the cholecystic duct was ligated and the gallbladder bile was aspirated with an injection syringe. The operation was finished after suturing the peritoneum. The bile was collected for one hour from 30 minutes after the operation, and subsequently, 44 ml of the test drug prepared above (250 mg/kg) was given through the canula for the drug administration. The volume of the bile secreted for the first, second and third one hour after the drug administration were 2.2, 2.1 and 1.9 times larger, respectively, than that secreted for one hour before the drug administration.
About 2.5 g of 9-propionyloxy-p-menth-1-en-8-ol was weighed accurately and suspended in 50 ml of 5% gum arabic aqueous solution. This suspension was used as a choleretic of the present invention. A male mongrel dog weighing 7.6 kg was fasted overnight and anesthetized by subcutaneous injection of 1.0 mg/kg of urethane and then laparotomized. One canula was inserted into the common bile duct and directed to the liver for collection of the bile, and the other canula into the duodenum for the drug administration. Subsequently, the cholecystic duct was ligated and the gallbladder bile was aspirated with an injection syringe. The operation was finished by suturing the peritoneum. The bile was collected for one hour from 30 minutes after the operation, and 50 ml (330 mg/kg) of the test drug prepared above was administered through the canula for the drug administration. The volume of the bile secreted for the first, second and third one hour after the drug administration was 3.2, 5.0 and 4.7 times larger, respectively, than that secreted for one hour before the drug administration.

SMILES: CC1=CCC(C(C)(O)CO)CC1 (centres unmarked) [p-Menth-1-ene-8,9-diol, p-menth-1-ene-8,9-diol]
- LD50 at 72 h [1]: 1800 mg/kg
- Bile volume secreted after administration (bile secretion [2]; 80 mg/kg, 0-1 hr): 155%
- Bile volume secreted after administration (bile secretion [2]; 80 mg/kg, 1-2 hr): 118%
- Bile volume secreted after administration (bile secretion [2]; 80 mg/kg, 2-3 hr): 101%
- Bile volume secreted after administration (bile secretion [2]; 80 mg/kg, 3-4 hr): 93%
- Bile volume secreted after administration (bile secretion [2]; 80 mg/kg, 4-5 hr): 85%
- Bile volume secreted after administration (bile secretion [2]; 250 mg/kg, 0-1 hr): 213%
- Bile volume secreted after administration (bile secretion [2]; 250 mg/kg, 1-2 hr): 170%
- Bile volume secreted after administration (bile secretion [2]; 250 mg/kg, 2-3 hr): 122%
- Bile volume secreted after administration (bile secretion [2]; 250 mg/kg, 3-4 hr): 99%
- Bile volume secreted after administration (bile secretion [2]; 250 mg/kg, 4-5 hr): 89%
- Bile volume secreted after administration (bile secretion [2]; 750 mg/kg, 0-1 hr): 218%
- Bile volume secreted after administration (bile secretion [2]; 750 mg/kg, 1-2 hr): 199%
- Bile volume secreted after administration (bile secretion [2]; 750 mg/kg, 2-3 hr): 175%
- Bile volume secreted after administration (bile secretion [2]; 750 mg/kg, 3-4 hr): 153%
- Bile volume secreted after administration (bile secretion [2]; 750 mg/kg, 4-5 hr): 139%
- Volume of bile secreted relative to one hour before administration (bile secretion [2]; 250 mg/kg, first hour): 2.1 times
- Volume of bile secreted relative to one hour before administration (bile secretion [2]; 250 mg/kg, second hour): 1.7 times
- Volume of bile secreted relative to one hour before administration (bile secretion [2]; 250 mg/kg, third hour): 1.2 times
- Sleeping time [3]: 17.8 ± 0.3 min
- Bile volume secreted after administration (bile secretion [4]; 250 mg/kg, 0-1 hr): 176%
- Bile volume secreted after administration (bile secretion [4]; 250 mg/kg, 1-2 hr): 168%
- Bile volume secreted after administration (bile secretion [4]; 250 mg/kg, 2-3 hr): 122%
- Bile volume secreted after administration (bile secretion [4]; 250 mg/kg, 3-4 hr): 65%
- Bile volume secreted after administration (bile secretion [4]; 250 mg/kg, 4-5 hr): 41%

SMILES: CCC(=O)OCC(C)(O)C1CC=C(C)CC1 (centres unmarked) [9-Propionyloxy-p-menth-1-en-8-ol, 9-propionyloxy-p-menth-1-en-8-ol]
- LD50 at 72 h [1]: > 4000 mg/kg
- Bile volume secreted after administration (bile secretion [2]; 110 mg/kg, 0-1 hr): 135%
- Bile volume secreted after administration (bile secretion [2]; 110 mg/kg, 1-2 hr): 117%
- Bile volume secreted after administration (bile secretion [2]; 110 mg/kg, 2-3 hr): 100%
- Bile volume secreted after administration (bile secretion [2]; 110 mg/kg, 3-4 hr): 87%
- Bile volume secreted after administration (bile secretion [2]; 110 mg/kg, 4-5 hr): 74%
- Bile volume secreted after administration (bile secretion [2]; 330 mg/kg, 0-1 hr): 147%
- Bile volume secreted after administration (bile secretion [2]; 330 mg/kg, 1-2 hr): 139%
- Bile volume secreted after administration (bile secretion [2]; 330 mg/kg, 2-3 hr): 118%
- Bile volume secreted after administration (bile secretion [2]; 330 mg/kg, 3-4 hr): 104%
- Bile volume secreted after administration (bile secretion [2]; 330 mg/kg, 4-5 hr): 86%
- Bile volume secreted after administration (bile secretion [2]; 990 mg/kg, 0-1 hr): 176%
- Bile volume secreted after administration (bile secretion [2]; 990 mg/kg, 1-2 hr): 174%
- Bile volume secreted after administration (bile secretion [2]; 990 mg/kg, 2-3 hr): 153%
- Bile volume secreted after administration (bile secretion [2]; 990 mg/kg, 3-4 hr): 130%
- Bile volume secreted after administration (bile secretion [2]; 990 mg/kg, 4-5 hr): 120%
- Bile volume secreted after administration (bile secretion [4]; 330 mg/kg, 0-1 hr): 322%
- Bile volume secreted after administration (bile secretion [4]; 330 mg/kg, 1-2 hr): 497%
- Bile volume secreted after administration (bile secretion [4]; 330 mg/kg, 2-3 hr): 472%
- Bile volume secreted after administration (bile secretion [4]; 330 mg/kg, 3-4 hr): 402%
- Bile volume secreted after administration (bile secretion [4]; 330 mg/kg, 4-5 hr): 367%
- Bile volume secreted after administration (bile secretion [4]; 330 mg/kg, 5-6 hr): 324%
- Volume of bile secreted relative to one hour before administration (bile secretion [4]; 330 mg/kg, first hour): 3.2 times
- Volume of bile secreted relative to one hour before administration (bile secretion [4]; 330 mg/kg, second hour): 5.0 times
- Volume of bile secreted relative to one hour before administration (bile secretion [4]; 330 mg/kg, third hour): 4.7 times

From patent publication US4083994A, “Choleretics” (Hisamitsu Pharmaceutical Co., Inc., priority 1975, dated 1978)
